Values of other authors, collected in patent US20050250805A1, “Pharmaceutical ointment formulations” (Glenmark Pharmaceuticals Limited, priority 2004, published 2005).

Tests used:
human subjects = details: 50 human subjects, total of 15 applications; according to the manufacturer's brochure

CN1CCCC1=O [Pharmasolve, N-methyl-2-pyrrolidone]
PII (skin irritation; practically nonirritating to rabbit skin) (rabbit skin): 0.5 | Primary dermal irritation / sensitization in repeated insult patch test (human subjects): neither a primary dermal irritant nor a sensitizer
